{"source": "PubChem BioAssay (NCI)", "assay_in_all_cases": "NCI tumour cell line growth inhibition, 48 h", "key": {"786-0 renal": {"system": "786-0 renal"}, "A498 renal": {"system": "A498 renal"}, "A549 NSCLC": {"system": "A549 NSCLC"}, "ACHN renal": {"system": "ACHN renal"}, "BT-549 breast": {"system": "BT-549 breast"}, "CAKI-1 renal": {"system": "CAKI-1 renal"}, "CCRF-CEM leukemia": {"system": "CCRF-CEM leukemia"}, "COLO 205 colon": {"system": "COLO 205 colon"}, "DU-145 prostate": {"system": "DU-145 prostate"}, "EKVX NSCLC": {"system": "EKVX NSCLC"}, "HCC-2998 colon": {"system": "HCC-2998 colon"}, "HCT-116 colon": {"system": "HCT-116 colon"}, "HCT-15 colon": {"system": "HCT-15 colon"}, "HL-60(TB) leukemia": {"system": "HL-60(TB) leukemia"}, "HOP-62 NSCLC": {"system": "HOP-62 NSCLC"}, "HOP-92 NSCLC": {"system": "HOP-92 NSCLC"}, "HS 578T breast": {"system": "HS 578T breast"}, "HT29 colon": {"system": "HT29 colon"}, "IGROV1 ovarian": {"system": "IGROV1 ovarian"}, "KM12 colon": {"system": "KM12 colon"}, "LOX IMVI melanoma": {"system": "LOX IMVI melanoma"}, "M14 melanoma": {"system": "M14 melanoma"}, "MALME-3M melanoma": {"system": "MALME-3M melanoma"}, "MCF7 breast": {"system": "MCF7 breast"}, "MDA-MB-231 breast": {"system": "MDA-MB-231 breast"}, "MDA-MB-435": {"system": "MDA-MB-435"}, "MDA-MB-468 breast": {"system": "MDA-MB-468 breast"}, "MOLT-4 leukemia": {"system": "MOLT-4 leukemia"}, "NCI-H226 lung": {"system": "NCI-H226 lung"}}, "note": "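Values below derive from 48-hour exposures of cells grown in 96-well plates, with endpoints linearly interpolated between the two concentrations bracketing the appropriate inhibition level. Abbreviation: GI50, concentration required for 50% inhibition of growth. At the TGI there is no net growth.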", "data": [{"smiles": "Nc1cc(-c2c[nH]c3ccc(Br)cc23)nc2cc(-c3c[nH]c4ccccc34)nn12", "values": [{"measurement": "GI50", "setting": "786-0 renal", "result": 1.63, "unit": "µM"}, {"measurement": "TGI", "setting": "786-0 renal", "result": 3.54, "unit": "µM"}, {"measurement": "GI50", "setting": "A498 renal", "result": 2.42, "unit": "µM"}, {"measurement": "TGI", "setting": "A498 renal", "result": 7.74, "unit": "µM"}, {"measurement": "GI50", "setting": "A549 NSCLC", "result": 2.91, "unit": "µM"}, {"measurement": "TGI", "setting": "A549 NSCLC", "result": 11.5, "unit": "µM"}, {"measurement": "GI50", "setting": "ACHN renal", "result": 2.77, "unit": "µM"}, {"measurement": "TGI", "setting": "ACHN renal", "result": 9.2, "unit": "µM"}, {"measurement": "GI50", "setting": "BT-549 breast", "result": 9.32, "unit": "µM"}, {"measurement": "TGI", "setting": "BT-549 breast", "result": 21.8, "unit": "µM"}, {"measurement": "GI50", "setting": "CAKI-1 renal", "result": 2.2, "unit": "µM"}, {"measurement": "TGI", "setting": "CAKI-1 renal", "result": 7.33, "unit": "µM"}, {"measurement": "GI50", "setting": "CCRF-CEM leukemia", "result": 3.05, "unit": "µM"}, {"measurement": "TGI", "setting": "CCRF-CEM leukemia", "result": 13.2, "unit": "µM"}, {"measurement": "GI50", "setting": "COLO 205 colon", "result": 1.73, "unit": "µM"}, {"measurement": "TGI", "setting": "COLO 205 colon", "result": 3.33, "unit": "µM"}, {"measurement": "GI50", "setting": "DU-145 prostate", "result": 3.88, "unit": "µM"}, {"measurement": "TGI", "setting": "DU-145 prostate", "result": 14.4, "unit": "µM"}, {"measurement": "GI50", "setting": "EKVX NSCLC", "result": 2.92, "unit": "µM"}, {"measurement": "TGI", "setting": "EKVX NSCLC", "result": 10.9, "unit": "µM"}, {"measurement": "GI50", "setting": "HCC-2998 colon", "result": 1.85, "unit": "µM"}, {"measurement": "TGI", "setting": "HCC-2998 colon", "result": 3.61, "unit": "µM"}, {"measurement": "GI50", "setting": "HCT-116 colon", "result": 1.77, "unit": "µM"}, {"measurement": "TGI", "setting": "HCT-116 colon", "result": 3.39, "unit": "µM"}, {"measurement": "GI50", "setting": "HCT-15 colon", "result": 1.74, "unit": "µM"}, {"measurement": "TGI", "setting": "HCT-15 colon", "result": 3.62, "unit": "µM"}, {"measurement": "GI50", "setting": "HL-60(TB) leukemia", "result": 2.84, "unit": "µM"}, {"measurement": "TGI", "setting": "HL-60(TB) leukemia", "result": 12.7, "unit": "µM"}, {"measurement": "GI50", "setting": "HOP-62 NSCLC", "result": 3.52, "unit": "µM"}, {"measurement": "TGI", "setting": "HOP-62 NSCLC", "result": 12.2, "unit": "µM"}, {"measurement": "GI50", "setting": "HOP-92 NSCLC", "result": 2.06, "unit": "µM"}, {"measurement": "TGI", "setting": "HOP-92 NSCLC", "result": 6.08, "unit": "µM"}, {"measurement": "GI50", "setting": "HS 578T breast", "result": 3.11, "unit": "µM"}, {"measurement": "TGI", "setting": "HS 578T breast", "result": 9.62, "unit": "µM"}, {"measurement": "GI50", "setting": "HT29 colon", "result": 1.98, "unit": "µM"}, {"measurement": "TGI", "setting": "HT29 colon", "result": 4.08, "unit": "µM"}, {"measurement": "GI50", "setting": "IGROV1 ovarian", "result": 3.55, "unit": "µM"}, {"measurement": "TGI", "setting": "IGROV1 ovarian", "result": 14.6, "unit": "µM"}, {"measurement": "GI50", "setting": "KM12 colon", "result": 2.21, "unit": "µM"}, {"measurement": "TGI", "setting": "KM12 colon", "result": 5.31, "unit": "µM"}, {"measurement": "GI50", "setting": "LOX IMVI melanoma", "result": 1.69, "unit": "µM"}, {"measurement": "TGI", "setting": "LOX IMVI melanoma", "result": 3.07, "unit": "µM"}, {"measurement": "GI50", "setting": "M14 melanoma", "result": 2.09, "unit": "µM"}, {"measurement": "TGI", "setting": "M14 melanoma", "result": 5.05, "unit": "µM"}, {"measurement": "GI50", "setting": "MALME-3M melanoma", "result": 1.91, "unit": "µM"}, {"measurement": "TGI", "setting": "MALME-3M melanoma", "result": 3.64, "unit": "µM"}, {"measurement": "GI50", "setting": "MCF7 breast", "result": 2.05, "unit": "µM"}, {"measurement": "TGI", "setting": "MCF7 breast", "result": 5, "unit": "µM"}, {"measurement": "GI50", "setting": "MDA-MB-231 breast", "result": 1.9, "unit": "µM"}, {"measurement": "TGI", "setting": "MDA-MB-231 breast", "result": 3.63, "unit": "µM"}, {"measurement": "GI50", "setting": "MDA-MB-435", "result": 2.95, "unit": "µM"}, {"measurement": "TGI", "setting": "MDA-MB-435", "result": 9.98, "unit": "µM"}, {"measurement": "GI50", "setting": "MDA-MB-468 breast", "result": 1.75, "unit": "µM"}, {"measurement": "TGI", "setting": "MDA-MB-468 breast", "result": 4.13, "unit": "µM"}, {"measurement": "GI50", "setting": "MOLT-4 leukemia", "result": 2.4, "unit": "µM"}, {"measurement": "TGI", "setting": "MOLT-4 leukemia", "result": 6.72, "unit": "µM"}, {"measurement": "GI50", "setting": "NCI-H226 lung", "result": 6.13, "unit": "µM"}]}]}
